Results taken from patent US9410152B2, “Use of microrna molecules to influence skin pigmentation” (CHANEL PARFUMS BEAUTE, priority 2011, dated 2016).

Tested on: MNT-1 cells
Assay: Measurement of the relative melanin concentration (absorbance at 470 nm of protein lysates)
Type: cell-based, human
Conditions: Homo sapiens, 288 h, 3.5 mM, 12 days, read-out: percentage inhibition (depigmentation positive control)
Method: 4×10^5 MNT-1 cells were seeded per well in a 6-well plate (#353046, Falcon) on day-1. On day 0, the cells were transfected with 50 nM of mimetic of the miRNAs (hsa-mir-137 # C-300604-07-005, hsa-mir-7 # C-300547-05-0005, hsa-mir-330-5p # C-301082-01-0005, negative control # NC-002000-01-05, Dharmacon), using 5 μL of Lipofectamine 2000 (#1668-019, Invitrogen). On day 1, the medium was changed. On day 3, the cells were trypsinized and seeded at 4×10^5 cells per well. On day 4, the cells were transfected again with 50 nM of mimetic of the miRNAs (see day 0). On day 5, the medium was changed. On day 7, the cells were trypsinized and seeded at 4×10^5 cells per well. On day 8, the cells were transfected with 50 nM of mimetic of the miRNAs (see day 0). On day 9, the medium was changed. On day 10, the cells were trypsinized and divided into two (from one by six wells to two by six wells). On day 12, one six-well plate was used for lysis of the RNA and the other for lysis of the proteins. As positive control of depigmentation, MNT-1 cells were incubated with 3.5 mM of kojic acid (Sigma K3125-5G) for 12 days. The cells were distributed as described and the kojic acid was renewed with the medium every 4 days. The percentage inhibition of the kojic acid is of the order of 10%.
On day 12, the cells were washed in PBS twice and lysed in 75 μL/well of a 6-well dish of lysis buffer for the RIPA proteins. The protein lysates were transferred to 1.5-ml Eppendorf tubes and vortexed lightly to homogenize the solution before putting the tube on ice or for storage at −80° C. 2 μL of protein lysate was used for measuring the absorbance of the melanin at 470 nm using the NanoVue spectrophotometer (GE Healthcare). The protein lysate of the unpigmented XB2 keratinocytes was used as calibrator sample (reference=0). To detect the relative quantity of melanin, all the samples were compared with the transfection control sample (miCtrl). The absorbance at 470 nm of the sample miCtrl was fixed at 1 as reference. In addition, the melanin absorption at 470 nm was normalized taking into account the concentration of proteins of each sample relative to miCtrl.

`O=c1cc(CO)occ1O` [kojic acid, reference compound] gave an inhibition at 3500 µM of roughly 10%.
